Laboratory results as given in patent US7342000B2, “Semisynthetic macrolide antibiotics of the azalide series” (GlaxoSmithKline istrazivacki center Zagreb, priority 2002, dated 2008).

Experiments:
Experiment in all cases: MIC by broth dilution (NCCLS M7-A2)
Assay type in all cases: cell-based
Details in all cases: 90% growth inhibition
S. pyogenes = test system: S. pyogenes
Text: (§1) MIC levels for all compound were determinated on panel of susceptible, and resistant Gram positive bacterial strains (S. aureus, S. pneumoniae and S. pyogenes) and on Gram negative strains (E. coli, H. influenzae, […], M. catarrhalis).

E. faecalis ATCC 29212 = test system: E. faecalis ATCC 29212
Text: as §1

S. pneumoniae = test system: S. pneumoniae
Text: as §1

S. pyogenes M = test system: S. pyogenes M
Text: as §1

S. aureus ATCC 13709 = test system: S. aureus ATCC 13709
Text: as §1

E. coli ATCC 25922 = test system: E. coli ATCC 25922
Text: as §1

H. influenzae ATCC 49247 = test system: H. influenzae ATCC 49247
Text: as §1

S. pyogenes iMLS = test system: S. pyogenes iMLS
Text: as §1

[1] = test system: M. catarrhalis ATCC 23246
Text: as §1

| Compound | MIK (S. pyogenes) | MIK (E. faecalis ATCC 29212) | MIK (S. pneumoniae) | MIK (S. pyogenes M) | MIK (S. aureus ATCC 13709) | MIK (E. coli ATCC 25922) | MIK (H. influenzae ATCC 49247) | MIK (S. pyogenes iMLS) | MIK [1] |
| --- | --- | --- | --- | --- | --- | --- | --- | --- | --- |
| CCOC(=O)CNC(=O)NCCCN1CC(C)CC(C)(O)C(OC2OC(C)CC(N(C)C)C2O)C(C)C(OC2CC(C)(OC)C(O)C(C)O2)C(C)C(=O)OC(CC)C(C)(O)C(O)C1C (stereo not drawn) [Example 9, 9-Deoxo-9-dihydro-9a-N-(N′-ethoxycarbonylmethylcarbamoyl-γ-aminopropyl)-9a-aza-9a-homoerithromycin A] | ≦0.125 μg/ml | >64 µg/mL | ≦0.125 μg/ml | 64 µg/mL | 8 µg/mL | >64 µg/mL | 32 µg/mL | 16 µg/mL | 4 µg/mL |
| CC[C@H]1OC(=O)[C@H](C)[C@@H](O[C@H]2C[C@@](C)(OC)[C@@H](O)[C@H](C)O2)[C@H](C)[C@@H](O[C@@H]2O[C@H](C)C[C@H](N(C)C)[C@H]2O)[C@](C)(O)C[C@@H](C)CN(CCCNC(=O)NC(C)c2cccc3ccccc23)[C@H](C)[C@@H](O)[C@]1(C)O (stereo partly drawn) [Example 10] | ≦0.125 μg/ml | 16 µg/mL | 8 µg/mL | 16 µg/mL | 16 µg/mL | 64 µg/mL | 2 µg/mL | 8 µg/mL | 4 µg/mL |
| CC[C@H]1OC(=O)[C@H](C)[C@@H](O[C@H]2C[C@@](C)(OC)[C@@H](O)[C@H](C)O2)[C@H](C)[C@@H](O[C@@H]2O[C@H](C)C[C@H](N(C)C)[C@H]2O)[C@](C)(O)C[C@@H](C)CN(CCCNC(=O)Nc2cc(OC)c(OC)c(OC)c2)[C@H](C)[C@@H](O)[C@]1(C)O [Example 11, 9-Deoxo-9-dihydro-9a-N-[N′-(3,4,5-trimethoxyphenyl)carbamoyl-γ-aminopropyl]-9a-aza-9a-homoerithromycin A] | ≦0.125 μg/ml | >64 µg/mL | ≦0.125 μg/ml | 64 µg/mL | 4 µg/mL | >64 µg/mL | 16 µg/mL | 32 µg/mL | 16 µg/mL |
| CC[C@H]1OC(=O)[C@H](C)[C@@H](O[C@H]2C[C@@](C)(OC)[C@@H](O)[C@H](C)O2)[C@H](C)[C@@H](O[C@@H]2O[C@H](C)C[C@H](N(C)C)[C@H]2O)[C@](C)(O)C[C@@H](C)CN(CCCNC(=O)Nc2ccc3ccccc3c2)[C@H](C)[C@@H](O)[C@]1(C)O [Example 12, 9-Deoxo-9-dihydro-9a-N-[N′-(2-naphtyl)carbamoyl-γ-aminopropyl]-9a-aza-9a-homoerithromycin A] | ≦0.125 μg/ml | 8 µg/mL | 16 µg/mL | 8 µg/mL | 8 µg/mL | 32 µg/mL | 2 µg/mL | 2 µg/mL | 0.5 µg/mL |
| CC[C@H]1OC(=O)[C@H](C)[C@@H](O[C@H]2C[C@@](C)(OC)[C@@H](O)[C@H](C)O2)[C@H](C)[C@@H](O[C@@H]2O[C@H](C)C[C@H](N(C)C)[C@H]2O)[C@](C)(O)C[C@@H](C)CN(CCCNC(=O)N(CCC#N)c2cccc3ccccc23)[C@H](C)[C@@H](O)[C@]1(C)O [Example 28, 9-Deoxo-9-dihydro-9a-N-[N′-(β-cyanoethyl)-N′-(1-naphtyl)carbamoyl-γ-aminopropyl]-9a-aza-9a-homoerithromycin A] | ≦0.125 μg/ml | 4 µg/mL | ≦0.125 μg/ml | 4 µg/mL | 1 µg/mL | 8 µg/mL | 1 µg/mL | 2 µg/mL | 0.25 µg/mL |
| CCC1OC(=O)C(C)C(OC2CC(C)(OC)C(O)C(C)O2)C(C)C(OC2OC(C)CC(N(C)C)C2O)C(C)(O)CC(C)CN(CCCNC(=S)N(CCC#N)Cc2ccccc2)C(C)C(O)C1(C)O (stereo not drawn) [Example 30, 9-Deoxo-9-dihydro-9a-N-[N′-(β-cyanoethyl)-N′-benzylthiocarbamoyl-γ-aminopropyl]-9a-aza-9a-homoerithromycin A] | ≦0.125 μg/ml | 8 µg/mL | ≦0.125 μg/ml | 4 µg/mL | 1 µg/mL | 16 µg/mL | 2 µg/mL | 2 µg/mL | 1 µg/mL |
| CC[C@H]1OC(=O)[C@H](C)[C@@H](O[C@H]2C[C@@](C)(OC)[C@@H](O)[C@H](C)O2)[C@H](C)[C@@H](O[C@@H]2O[C@H](C)C[C@H](N(C)C)[C@H]2O)[C@](C)(O)C[C@@H](C)CN(CCCNC(=S)N(CCC#N)c2cccc3ccccc23)[C@H](C)[C@@H](O)[C@]1(C)O [Example 31, 9-Deoxo-9-dihydro-9a-N-[N′-(β-cyanoethyl)-N′-(1-naphtyl)thiocarbamoyl-γ-aminopropyl]-9a-aza-9a-homoerithromycin A] | ≦0.125 μg/ml | 4 µg/mL | ≦0.125 μg/ml | 4 µg/mL | 4 µg/mL | 8 µg/mL | 2 µg/mL | 4 µg/mL | 2 µg/mL |
| CC[C@H]1OC(=O)[C@H](C)[C@@H](O[C@H]2C[C@@](C)(OC)[C@@H](O)[C@H](C)O2)[C@H](C)[C@@H](O[C@@H]2O[C@H](C)C[C@H](N(C)C)[C@H]2O)[C@](C)(O)C[C@@H](C)CN(CCCNC(=O)N(CCC#N)c2ccccc2C(F)(F)F)[C@H](C)[C@@H](O)[C@]1(C)O [Example 32, 9-Deoxo-9-dihydro-9a-N-[N′-(β-cyanoethyl)-N′-(2-(trifluoromethyl)phenyl)carbamoyl-γ-aminopropyl]-9a-aza-homoerithromycin A] | ≦0.125 μg/ml | 64 µg/mL | ≦0.125 μg/ml | 32 µg/mL | 4 µg/mL | 32 µg/mL | 16 µg/mL | 8 µg/mL | 8 µg/mL |
| CC[C@H]1OC(=O)[C@H](C)[C@@H](O[C@H]2C[C@@](C)(OC)[C@@H](O)[C@H](C)O2)[C@H](C)[C@@H](O[C@@H]2O[C@H](C)C[C@H](N(C)C)[C@H]2O)[C@](C)(O)C[C@@H](C)CN(CCCNC(=O)N(CCC#N)CCCc2ccccc2)[C@H](C)[C@@H](O)[C@]1(C)O [Example 33, 9-Deoxo-9-dihydro-9a-N-[N′-(β-cyanoethyl)-N′-(3-phenylpropyl)carbamoyl-γ-aminopropyl]-9a-aza-9a-homoerithromycin A] | ≦0.125 μg/ml | 16 µg/mL | ≦0.125 μg/ml | 8 µg/mL | 1 µg/mL | 16 µg/mL | 2 µg/mL | 4 µg/mL | 1 µg/mL |
| CC[C@H]1OC(=O)[C@H](C)[C@@H](O[C@H]2C[C@@](C)(OC)[C@@H](O)[C@H](C)O2)[C@H](C)[C@@H](O[C@@H]2O[C@H](C)C[C@H](N(C)C)[C@H]2O)[C@](C)(O)C[C@@H](C)CN(CCCNC(=O)N(CCC#N)c2ccc3ccccc3c2)[C@H](C)[C@@H](O)[C@]1(C)O [Example 38, 9-Deoxo-9-dihydro-9a-N-[N′-(β-cyanoethyl)-N′-(2-naphtyl)carbamoyl-γ-aminopropyl]-9a-aza-9a-homoerithromycin A] | ≦0.125 μg/ml | 8 µg/mL | ≦0.125 μg/ml | 8 µg/mL | 1 µg/mL | 32 µg/mL | 2 µg/mL | 2 µg/mL | 0.5 µg/mL |
